Where two headings read alike, the source gives them in different places.
Legend:
[1] = tested on: JaPTAL; assay: PAL activity kinetics, Michaelis-Menten; assay type: biochemical, Joinvillea ascendens; details: only the range for graminid PTALs is in the text
[2] = tested on: JaPTAL; details: read-out: apparent Km; also printed as 11.0 μM

| Km [1] [µM] | SMILES | Km [2] [µM] |
| --- | --- | --- |
| 65.6 ± 1.4 | N[C@@H](Cc1ccccc1)C(=O)O [Phe] | – |
| – | N[C@@H](Cc1ccc(O)cc1)C(=O)O [Tyr] | 10.9 |

Source: paper doi:10.1101/2024.11.06.622220v2 (biorxiv, 2024)
